Test results reported in patent US6423731B1, “Indole derivatives as prodrugs of 5-HT1-like receptor agonists” (Zeneca Limited, priority 1994, dated 2002).

Assays:
[1] = Plasma concentrations in rats after intravenous administration; assay type: in vivo, rat
Description: (§1) Investigations were carried out in rats to determine whether 4-[1-Acetyl-3-[2-(dimethylamino)ethyl]indol-5-ylmethyl]oxazolidin-2-one acetate (compound of Example 6) acts as a prodrug for the pharmacologically active compound 4-[3-[2-(dimethylamino)ethyl]-1H-indol-5-ylmethyl]-2-oxazolidinone described in EP-A-0486666. The compound of Example 6 was incubated with rat plasma at a concentration of approx. 0.2 μg/ml for up to 4 h. At selected times the incubations were terminated by addition of acetone and the concentrations of both 4-[1-Acetyl-3-[2-(dimethylamino)ethyl]indol-5-ylmethyl]oxazolidin-2-one acetate and its breakdown product 4-[3-[2-(dimethylamino)ethyl]-1H-indol-5-ylmethyl]-2-oxazolidinone were determined by HPLC assay. In addition rats were administered 4-[1-Acetyl-3-[2-(dimethylamino)ethyl]indol-5-ylmethyl]oxazolidin-2-one acetate intravenously at a dose of 4 mg/kg and the plasma and brain concentrations of this compound and the breakdown product, 4-[3-[2-(Dimethylamino)ethyl]-1H-indol-5-ylmethyl]- 2-oxazolidinone were determined up to 8 h after administration.
After intravenous administration, the peak plasma concentration (Cmax) of 4-[1-acetyl-3-[2-(dimethylamino)ethyl]indol-5-ylmethyl]oxazolidin-2-one acetate was approx 0.2 μg/ml (5 min) and this parent compound was detectable up to 1 h post dose (limit of detection 0.02 μg/ml); the plasma half-life was approximately 0.2 h. The breakdown product, 4-[3-[2-(dimethylamino) ethyl]-1H-indol-5-ylmethyl]-2-oxazolidinone was also detected in the plasma (Cmax 0.3 μg/ml, 5 min) up to 4 h after dosage.

[2] = Diffusion through a lipoidal membrane barrier (trans-cellular absorption); assay type: physicochemical; conditions: laceryl alcohol/caprytic acid lipid membrane
Description: The diffusion rates of the Compound of Example 3 and the active compound, 4-[3-[2-dimethylamino)ethyl]-1H-indol-5-ylmethyl]-2-oxazolidinone, through a lipoidal membrane barrier (laceryl alcohol/caprytic acid lipid membrane) were determined and compared.

[3] = Incubation with rat hepatocytes (conversion to active compound); assay type: in vitro ADME
Description: The compound of Example 3 was incubated with rat hepalocytes to determine whether the active compound, 4-[3-[2-(dimethylamino)ethyl]-1H-indol-5-ylmethyl]-2-oxazolidinone, is a main product of its metabolism.

[4] = Incubation of compound with rat plasma, HPLC assay of parent and breakdown product; assay type: in vitro ADME
Description: as §1
4-[1-Acetyl-3-[2-(dimethylamino)ethyl]indol-5-ylmethyl]oxazolidin-2-one acetate was converted to 4-[3-[2-(Dimethylamino)ethyl]-1H-indol-5-ylmethyl]-2-oxazolidinone in rat plasma, with a half-life of approximately 3 h. After 4 h incubation only 30% of the parent compound of example 6 remained.

Row | breakdown product detected in plasma up to, after dosage ([1]; rat, in vivo, iv, 4 mg/kg) | Compound | Diffusion Rate [2] [cm/min/1000] | conversion into the active compound [3] | compound remaining ([3]; after 30 minutes incubation) | melting point [°C] | half-life at 0.2 μg/ml ([4]; rat plasma incubation, approx. 0.2 μg/ml, up to 4 h, read-out: half-life of conversion to 4-[3-[2-(Dimethylamino)ethyl]-1H-indol-5-ylmethyl]-2-oxazolidinone in rat plasma (converted)) [h] | parent compound remaining ([4]; rat plasma, after 4 h incubation) [%] | half-life ([1]; in vivo, rat, intravenous, 4 mg/kg) [h] | Cmax ([1]; in vivo, rat, intravenous, 4 mg/kg, read-out: peak plasma concentration (Cmax) of parent compound) [ng/mL] | parent compound detectable in plasma up to, post dose ([1]; rat, intravenous, 4 mg/kg, limit of detection 0.02 μg/ml) | conversion into active compound in rats ([1]; rats, plasma incubation and intravenous experiments)
1 | up to 4 h | CN(C)CCc1c[nH]c2ccc(CC3COC(=O)N3)cc12 (stereo not drawn) [Active compound, 4-[3-[2-(dimethylamino)ethyl]-1H-indol-5-ylmethyl]-2-oxazolidinone, reference compound] | 0.68 | – | – | – | – | – | – | – | – | –
2 | – | CC(=O)O.Cc1ccccc1C(=O)n1cc(CCN(C)C)c2cc(CC3COC(=O)N3)ccc21 (stereo not drawn) [Example 3, 4-[1-(2-toluoyl)-3-[2-(dimethylamino)ethyl]indol-5-ylmethyl]oxazolidin-2-one acetate] | 3.88 | extensively and rapidly converted into the active compound | no compound of Example 3 remained | 51.5 to 54 | – | – | – | – | – | –
3 | – | CC(=O)O.CC(=O)n1cc(CCN(C)C)c2cc(CC3COC(=O)N3)ccc21 (stereo not drawn) [Example 6, 4-[1-Acetyl-3-[2-(dimethylamino)ethyl]indol-5-ylmethyl]oxazolidin-2-one acetate] | – | – | – | – | ~3 | 30 | ~0.2 | ~200 | up to 1 h | is converted into 4-[3-[2-(dimethylamino)ethyl]-1H-indol-5-ylmethyl]-2-oxazolidinone in rats
